Experimental data taken from patent USRE48267E1, “Variants of C-type natriuretic peptide” (priority 2009, dated 2020).
Where a SMILES comes first, the peptide text is derived from it. Bridges are numbered along the chain shown (N, C = ends). The star is where a group is joined. MeO(CH2CH2O)23CH2CH2CO = COCCOCCOCCOCCOCCOCCOCCOCCOCCOCCOCCOCCOCCOCCOCCOCCOCCOCCOCCOCCOCCOCCOCCOCCC(=O)*

Experiments:
[1] = tested on: wild-type mouse femurs and tibias; test: mouse organ culture model of endochondral bone growth, wild-type bones; settings: for longitudinal growth of wild-type mouse femur ex vivo: 8 days
Procedure: To determine the efficacy of CNP variants in stimulating longitudinal bone growth, CNP variants were tested in a mouse organ culture model of endochondral bone growth in wild-type mice and transgenic mice having a G380R mutation in the human FGFR-3 gene (FGFR3^wt/Ach heterozygote) which represent a mouse model of mild achondroplasia. In brief, the pharmacological activity of wild-type CNP22 and CNP variants was compared in an organ culture model of embryonic or neonatal mouse tibiae, isolated from wild-type and FGFR3^wt/Ach littermates. Overall bone growth and histological changes within the growth plate were assessed. Conditioned culture medium is also assessed for biomarkers of intracellular signaling (cGMP), cartilage metabolism (type II collagen, other collagens, aggrecan chondroitin sulfate), bone metabolism (bone alkaline phosphatase, osteocalcin, type I collagen [C-telopeptide, N-telopeptide]), and inflammation (interleukin-1, interleukin 6, interleukin-11).
The efficacy of wtCNP22, CNP37 and PEO24-[…]22(K4R) (SEQ ID NO: 36) in stimulating longitudinal femoral growth was evaluated in the mouse organ culture model. For these experiments femora were isolated from 2-3 day old wild-type mice and cultured in alphaMEM supplemented with 0.2% BSA, 0.5 mM L-glutamine, 40 units penicillin/mL and 40 ug streptomycin/mL, for 8 days in the presence of vehicle, CNP22 or CNP variants. The treatment commenced at day 0 and was repeated every two days thereafter, as the medium was changed. Bones were measured prior to treatment and every two days thereafter, using a dissection microscope fitted with a 1 cm eye-piece reticule. Conditioned medium was used for biomarker analysis. At day 8 bones were fixed in 4% paraformaldehyde for 24 hr, decalcified in 5% formic acid for 24 hrs, dehydrated and embedded in paraffin. Bones were sectioned at 5 um (microns), which were then deparaffinized, rehydrated, and stained with Alcian Blue for 30 min (pH 2.5; MasterTech). Alcian Blue stains cartilage blue. Stained sections were visualized and photographed by brightfield microscopy. The thickness of the hypertrophic region of the growth plate cartilage was determined by image analysis.
In addition to the distribution of CNP variants in the bone growth plate, the ex vivo effects of CNP37, CNP22 and vehicle on cells in the FGFR3^ach and wild-type growth plate, e.g., hypertrophic cell size and cellularity of proliferating zone, were also evaluated. Bone samples were prepared, including Alcian Blue staining, as described above. Images of the entire proximal growth plate were taken at 4× magnitude. The growth plate is divided into three zones, starting from the epiphyseal side of cartilage: the resting zone (individual small chondrocytes), proliferating zone (columns of stacked chondrocytes parallel to the long axis of the bone), and hypertrophic zone (large chondrocytes and thin septa between the chondrocytes). In these regions, measurements were made by ImageJ software, including the number of proliferating chondrocytes per column and the density of hypertrophic chondrocytes. […] The cell size of hypertrophic chondrocytes was calculated by 1 over determined cell density. […]
Femurs and tibias were isolated from wild-type and FGFR3^ach mice as described above. […] On the eighth day, media was collected and analyzed for the biomarkers cGMP (cyclic guanosine 3′, 5′ cyclic monophosphate) and fragments of cleaved collagen type II, a cartilage-specific marker for cartilage turnover. […]

cGMP = test: plasma cGMP concentration in rats; format: in vivo, rat
Procedure: Recombinant wild-type CNP22, CNP37 and PEO24-GANRR-CNP22 (K4R) (SEQ ID NO: 36) were evaluated.
Plasma cGMP concentrations in the sample at 5, 30, 60 and 90 minutes after i.v. dosing, or at 5, 30, 60, 120 and 180 minutes after s.c. dosing, were determined by the competitive RIA using anti-cGMP monoclonal antibody. Standard samples were prepared. 100 uL of the assay samples (standard solutions for the calibration curve or the diluted plasma samples for cGMP determination) were transferred to test tubes. Then 100 uL of anti-cGMP monoclonal antibody solution and 100 uL of ^125I-labeled succinyl cGMP tyrosine methyl ester solution were added to the tubes, respectively. All tubes were kept at 4° C. overnight. After the addition of 500 uL dextran charcoal solution, the tubes were vortexed and then placed on ice for 10 minutes. The reaction mixture was centrifuged and 500 uL of the supernatant was transferred from each sample to a new test tube. The amount of radiation (gamma line) in the supernatant was measured by a gamma-counter.

FGFR3^ach mice = test: bone growth biomarkers in FGFR3^ach mice; format: in vivo, mouse; settings: 200 nmol/kg s.c. daily, Day 36
Procedure: Plasma and serum were collected during the study. Harvested plasma was stored with 10× protease inhibitor at −80° C. until analysis. cGMP levels were measured 15 minutes post-injection on Day 36 from K2-ETDA plasma collection tubes. Fragments of cleaved collagen type II (cartilage-associated biomarkers), osteocalcin (bone-associated biomarker), and IgG (relating to immunogenicity) were measured from terminal bleed serum at the end of the study (Day 37). cGMP was measured using a commercially available ELISA kit (Cayman Chemical Co., Cat. No. 581021.1), cleaved collagen type II (Cartilaps) was measured using a commercially available kit from Immunodiagnostic Systems (Cat. No. 3CAL4000), and osteocalcin was measured using a commercially available kit from Biomedical Technologies Inc. (Stoughton, Mass.).

Recombinant human NEP = Recombinant human NEP (Homo sapiens, UniProt P08473); test: in vitro NEP cleavage assay (disappearance of non-cleaved CNP variant)
Procedure, shortened: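 Recombinant human NEP (1 ug/mL final) incubated with 100 uM CNP variant in 0.1 M Tris, pH 7, at 37° C for various times, then quenched with EDTA (10 mM final) and heat. Samples reduced and analysed by HPLC and mass spectrometry. Half-life derived from loss of intact variant over time.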

Recombinant human NEP, sequence (P08473 whole entry): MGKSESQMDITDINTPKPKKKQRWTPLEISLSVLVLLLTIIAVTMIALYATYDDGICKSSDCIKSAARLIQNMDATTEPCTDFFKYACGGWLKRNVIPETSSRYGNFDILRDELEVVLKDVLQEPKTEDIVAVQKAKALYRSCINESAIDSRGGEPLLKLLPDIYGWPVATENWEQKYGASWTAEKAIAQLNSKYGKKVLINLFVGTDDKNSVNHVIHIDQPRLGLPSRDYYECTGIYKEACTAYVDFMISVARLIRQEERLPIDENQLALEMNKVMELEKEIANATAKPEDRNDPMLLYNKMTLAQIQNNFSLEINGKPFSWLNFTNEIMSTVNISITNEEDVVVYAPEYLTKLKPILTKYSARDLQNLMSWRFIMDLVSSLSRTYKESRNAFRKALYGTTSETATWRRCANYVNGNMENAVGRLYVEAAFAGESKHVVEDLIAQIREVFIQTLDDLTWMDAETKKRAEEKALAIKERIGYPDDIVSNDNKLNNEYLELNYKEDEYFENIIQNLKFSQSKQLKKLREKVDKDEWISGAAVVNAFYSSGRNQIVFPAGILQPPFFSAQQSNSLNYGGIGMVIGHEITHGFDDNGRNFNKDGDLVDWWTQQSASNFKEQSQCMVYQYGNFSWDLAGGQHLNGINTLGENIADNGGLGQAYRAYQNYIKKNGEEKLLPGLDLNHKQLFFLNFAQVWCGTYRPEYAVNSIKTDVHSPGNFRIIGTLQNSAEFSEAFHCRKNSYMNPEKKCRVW

CC[C@H](C)[C@@H]1NC(=O)[C@H](CCCNC(=N)N)NC(=O)[C@H](CC(=O)O)NC(=O)[C@H](CC(C)C)NC(=O)[C@H](CCCCN)NC(=O)[C@H](CC(C)C)NC(=O)CNC(=O)[C@H](Cc2ccccc2)NC(=O)[C@@H](NC(=O)CNC(=O)[C@H](CCCNC(=N)N)NC(=O)[C@H](CO)NC(=O)[C@H](CC(C)C)NC(=O)CNC(=O)[C@H](CCCNC(=N)N)NC(=O)[C@H](CCCNC(=N)N)NC(=O)[C@H](CC(N)=O)NC(=O)[C@H](C)NC(=O)CNC(=O)CCOCCOCCOCCOCCOCCOCCOCCOCCOCCOCCOCCOCCOCCOCCOCCOCCOCCOCCOCCOCCOCCOCCOCCOC)CSSC[C@@H](C(=O)O)NC(=O)CNC(=O)[C@H](CC(C)C)NC(=O)CNC(=O)[C@H](CO)NC(=O)[C@H](CCSC)NC(=O)[C@H](CO)NC(=O)CNC1=O [PEO24-GANRR-CNP22(K4R)] ({MeO(CH2CH2O)23CH2CH2CO}-GANRRGLSRGCFGLKLDRIGSMSGLGC-OH; disulfide 11-27)
cGMP levels in conditioned media ([1]; ex-planted wild-type mouse femurs and tibias, day 8): large increase (p<0.01) | longitudinal growth of wild-type mouse tibia ex vivo ([1]; treated every two days): increased the longitudinal growth of the tibia compared to vehicle or CNP22 | longitudinal growth of wild-type mouse femur ex vivo ([1]; treated every two days): the most effective | longitudinal growth of wild-type mouse femur ex vivo ([1]; treated every two days, listed as PE024-GANRR-CNP22(K4R)): stimulated the growth of wild-type mouse femur | levels of cleaved collagen type II in conditioned media ([1]; wild-type mouse femurs): increased | plasma levels of cGMP compared with CNP22 (cGMP; i.v. 20 nmol/kg, at 30, 60 and 90 minutes): much higher plasma levels of cGMP | plasma concentrations of cGMP compared with CNP22 (cGMP; s.c. 50 nmol/kg): substantially higher plasma concentrations of cGMP | cGMP plasma levels 15 minutes post-injection, compared to vehicle (FGFR3^ach mice): increase | resistance to NEP cleavage (in words) (Recombinant human NEP): completely resistant to NEP cleavage over the assay period of 160 minutes
